# In ChEMBL document CHEMBL1201862, “PubChem BioAssay data set” (2004):
# pIC50: −log10 of the molar value. Activity calls are given as the source filed them.
# What was measured:
# [1] = target: Metabotropic glutamate receptor 3 (Rattus norvegicus, UniProt P31422); test: inhibition of rat mGlu3 glutamate signaling – HEK/GIRK cells, thallium flux, dose response (AID 651839); type: functional
# Cryptococcus neoformans [2] = test: PubChem AID 686997; type: functional, organism-based
# Cryptococcus neoformans [3] = test: Cryptococcus growth inhibition by alamar blue – cell lysis, cherry-picks, replicate tests, mechanism study for C. neoformans antifungal project, dose response (AID 686999); type: functional, organism-based
# Beta-galactosidase = Beta-galactosidase (Escherichia coli, UniProt Q8VNN2); test: Dose response counterscreen for EBI2 assay utilizing the enzyme, b-galactosidase.; type: functional
# Major prion protein = Major prion protein (Homo sapiens, UniProt P04156); type: functional, cell-based
# cells [4] = test: cells
# [5] = inhibition of ADAM10 peptide cleavage – biochemical, FRET peptide substrate, recombinant human ADAM10, selectivity assay for ADAM17 exosite inhibitor project, dose response (AID 743259);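 further: ADAM10 enzyme cleaving a FRET peptide substrate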
# [6] = target: Disintegrin and metalloproteinase domain-containing protein 17 (Homo sapiens, UniProt P78536); test: exosite inhibitors of ADAM17, dose response, biochemical (AID 743260)
# [7] = MITF: Counter assay: A375 proliferation Measured in Cell-Based System Using Plate Reader - 2084-03_Inhibitor_Dose_DryPowder_Activity_Set8.; type: functional; details: A-375
# [8] = MITF Orthogonal Assay: SK-MEL-5 CTG Assay Measured in Cell-Based System Using Plate Reader - 2084-02_Inhibitor_Dose_DryPowder_Activity_Set7.; type: functional
# [9] = inhibitors of TRPM1-promoter reporter in SK-MEL-5 – cell-based, luciferase, dry powder, set 8, MITF inhibitor project, dose response (AID 624430); type: functional
# Galanin receptor type 3 = Galanin receptor type 3 (Homo sapiens, UniProt O60755); test: Fluorescence-based cell-based primary high throughput dose response assay to identify antagonists of the Galanin Receptor 3 (GalR3).; type: functional
# cells [10] = type: functional, cell-based; details: HEK-CNG
# 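Wherever EC50 is given: target is galanin receptor GalR3 read with a cAMP biosensor in HEK293 cells.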
structure (smiles),measurement,setting,value
COc1ccc(C#Cc2ccc(C(=O)N3CCC[C@@H](CO)C3)cc2)c(F)c1,pIC50,[1],5.31
COC(=O)C1=C(C)N(Cc2ccccc2)C(=S)NC1c1ccc(Br)cc1 (stereo not drawn),AC50,Cryptococcus neoformans [2],25 µM (active)
same,AC50,Cryptococcus neoformans [3],35 µM (active)
COc1ccccc1N1CCN(C(=O)c2cc3c(s2)-c2ccccc2OC3)CC1,IC50,Beta-galactosidase,> 80 µM (inactive)
CCOc1ccc(-n2nc3c(S)nnc(C)c3c2C)cc1,IC50,Major prion protein,0.321 µM (active)
same,IC50,cells [4],> 138 µM (inactive)
CCOC(=O)CC(SP1(=S)OCC2(CCCCO2)C(C2CCCCO2)O1)C(=O)OCC (stereo not drawn),IC50,[5],56.3 µM (inactive)
same,IC50,[6],32.8 µM (inactive)
CCN1CCN(C2=C(Nc3cccc(Cl)c3)C(=O)c3ccccc3C2=O)CC1,AC50,[7],31.7 µM (active)
same,AC50,[8],10.1 µM (active)
same,AC50,[9],2.94 µM (active)
CC1(CSc2ccccc2)CC(=O)N1 (stereo not drawn),IC50,Galanin receptor type 3,> 29.9 µM (inactive)
same,EC50,cells [10],> 29.9 µM (inactive)
